We go through twelve molecules from patent US4581453A, “Guanidinothiazole derivatives containing alkylene bridges, and their use for influencing lipid metabolism” (Bayer Aktiengesellschaft, priority 1982, dated 1986).

In brackets after ≈: the same amount, converted by molar mass. Structures can show the parent of a compound that is named as a salt.

In assay [1] the test system is platelet aggregation in rat PRP. Description: Platelet aggregation-inhibiting action (PAH) ex vivo, thromboatherosclerosis experiment. In kind it is in vivo. Conditions: po, 1.5 h, read-out: PAH ex vivo: Activity, ED50 (dose/concentration range). How it is done: The change in optical density of the sample of PRP was recorded over a period of 6 minutes and was determined via the reading after 6 minutes. The percentage inhibition is calculated from the corresponding readings. Moreover, the platelet aggregation was also determined in the context of the thromboatherosclerosis experiment. In carrying out these experiments, the active substance was administered to the animals orally in a Tylose suspension over a period of 10 days. On the 10th day, the animals were exsanguinated 90 minutes after the oral administration of the substance, and the PRP was isolated by means of centrifugation. After the PRP has been isolated, in vitro measurement of the aggregation inhibition starts, analogously to the process which has been described for the in vitro experiments; but without pre-incubation of the samples. 3 parts of rat PRP were also diluted with one part of physiological saline solution.
Atherosclerotic plaques are induced in rats by combination of two noxae (risk factors), that is to say vascular lesion and hyperlipaemia. By supercooling of the arteria carotis comm. (2 minutes, -10° C.), partial or complete endothelial scaling occurs in a locally restricted area. Proliferation of the intima occurs within 10 days, which is a relatively short period for such experiments, and largely corresponds to the early stages of atherosclerotic plaques in humans. The proliferation zones are removed and weighed. The moist weight in the supercooled segment of 1 cm is about 200-300 μg. The animals are additionally given a high-fat diet having the following composition: […]

In assay [2] the target is T1, Cyclooxygenase (Homo sapiens, UniProt P23219).
T1 construct: endogenous in cells; host or cells: human platelets
T1 sequence (P23219 24-599): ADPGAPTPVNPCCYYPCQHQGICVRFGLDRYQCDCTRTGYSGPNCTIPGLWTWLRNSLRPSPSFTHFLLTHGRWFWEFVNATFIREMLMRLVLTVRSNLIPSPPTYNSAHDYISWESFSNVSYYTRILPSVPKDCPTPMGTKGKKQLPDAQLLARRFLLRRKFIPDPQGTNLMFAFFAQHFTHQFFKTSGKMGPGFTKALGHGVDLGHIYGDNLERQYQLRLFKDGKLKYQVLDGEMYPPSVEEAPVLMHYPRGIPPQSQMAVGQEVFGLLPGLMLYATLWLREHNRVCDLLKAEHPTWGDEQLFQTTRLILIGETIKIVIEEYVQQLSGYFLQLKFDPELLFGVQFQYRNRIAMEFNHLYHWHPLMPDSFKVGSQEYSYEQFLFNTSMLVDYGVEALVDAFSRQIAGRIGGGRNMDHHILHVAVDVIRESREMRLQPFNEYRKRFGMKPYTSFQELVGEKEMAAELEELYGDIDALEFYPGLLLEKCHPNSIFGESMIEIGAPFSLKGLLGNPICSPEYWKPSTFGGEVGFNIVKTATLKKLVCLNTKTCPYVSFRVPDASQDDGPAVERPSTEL
Description: Arachidonic acid metabolism in platelets: cyclooxygenase inhibition. In kind it is cell-based. Conditions: 3H-arachidonic acid, read-out: Cyclooxygenase inhibition: Activity, ED50 (dose/concentration range) (converted). From the text:
In human platelets, ^3 H-arachidonic acid is converted into the products of the cyclooxygenase/thromboxane synthetase path, in particular thromboxane A2, and those of the lipoxygenase path, HETE. Separation of the resulting products by thin layer chromatography gives a characteristic pattern. Inhibitors of the individual enzymatic reactions modify this pattern in a typical manner (Bailey, J. M. et al., Prostaglandins 13, 479-492 (1977)). The action of the compounds according to the invention on individual reactions in arachidonic acid metabolism are shown in Table 2.

Assay [3] relates to proliferation of the intima (arteria carotis comm.). Description: Anti-atherosclerotic action, thromboatherosclerosis model. In kind it is in vivo. Conditions: po; rat, per orally; read-out: anti-atherosclerotic: Activity, ED50 (dose/concentration range). How it is done:
Because of some fluid transitions between atherosclerosis and thrombosis, we have called the method used "thromboatherosclerosis model".
Folia angiologica 28, 85 (1980).
Atherosclerotic plaques are induced in rats by combination of two noxae (risk factors), that is to say vascular lesion and hyperlipaemia. By supercooling of the arteria carotis comm. (2 minutes, -10° C.), partial or complete endothelial scaling occurs in a locally restricted area. Proliferation of the intima occurs within 10 days, which is a relatively short period for such experiments, and largely corresponds to the early stages of atherosclerotic plaques in humans. The proliferation zones are removed and weighed. The moist weight in the supercooled segment of 1 cm is about 200-300 μg. The animals are additionally given a high-fat diet having the following composition:
52% of normal feed (Altromin®).
The lipid deposits are stained with the fat-soluble dyestuff Sudan IV and can be determined as an additional parameter.

The test system of assay [4] is Microsporum canis. Description: Antimycetic in vitro activity, series dilution test. Conditions: Sabourands' milieu d'epreuve, 96 hours, 20° C.; for MIC: read-out: Minimum inhibitory concentration. In kind it is cell-based. How it is done: (§1) The in vitro tests were carried out in a series dilution test using germ inocula of on average 5×10^4 germs/ml of substrate. The nutrient medium used was
(§2) (a) Sabourands' milieu d'epreuve for dermatophytes and moulds; and
(§3) (b) meat extract/dextrose broth for yeasts.
(§4) The incubation temperature was 20° C. and the incubation time was 24 to 96 hours for yeasts and 96 hours for dermatophytes and moulds.

For assay [5], the system named is Trichophyton mentagrophytes. Described as above. In kind it is cell-based. Conditions: Sabourands' milieu d'epreuve, 96 hours, 20° C.; for MIC: read-out: Minimum inhibitory concentration. As for the experimental part:
as §1, §2, §3, §4

The test system of assay [6] is Aspergillus fumigatus. Described as above. As to conditions: Sabourands' milieu d'epreuve, 96 hours, 20° C.; for MIC: read-out: Minimum inhibitory concentration. In kind it is cell-based. How it is done:
as §1, §2, §3, §4

Assay [7] deals with Torulopsis glabrata. Described as above. In kind it is cell-based. As to conditions: meat extract/dextrose broth, 24 to 96 hours, 20° C.; for MIC: Nakaseomyces glabratus, read-out: Minimum inhibitory concentration. How it is done:
as §1, §2, §3, §4

For assay [8], the system named is Candida albicans. The assay is described as above. In kind it is cell-based. As to conditions: meat extract/dextrose broth, 24 to 96 hours, 20° C.; for MIC: read-out: Minimum inhibitory concentration. As for the experimental part:
as §1, §2, §3, §4

Assay [9] relates to proliferation of the intima (arteria carotis comm.). As to conditions: rat; heparin following parenteral administration; cited from earlier work.
The subject of assay [10] is liver cholesterol. Description: Cholesterol loading test. In kind it is in vivo, Wistar rats. Conditions: rat, 24 hours. As for the experimental part:
Cholesterol loading tests were carried out on conscious male or female Wistar rats weighing between 130-230 g.
Cholesterol and the substance to be tested were simultaneously administered orally in 0.75% strength tragacanth suspension. After 24 hours, the animals were sacrificed and the cholesterol content of the liver was determined. Cholesterol was determined by the Liebermann-Burchard method using the test combination of Boehringer Mannheim. Control animals received a corresponding volume of cholesterol/tragacanth suspension without the test substance. To monitor the rise in cholesterol as a result of cholesterol loading, tragacanth suspension containing no cholesterol was administered orally to another control group.

Take `CN1CCCNC1=Nc1nc(-c2ccccc2)cs1` [Example 49]: the ED50 in assay [1] and in assay [3] was 100 mg/kg each time. Besides, in assay [2], the IC50 is 36.7 µM.
For the molecule `Clc1ccc(-c2csc(N=C3NCCCN3)n2)c(Cl)c1` [Example 27], the MIC in [4] was less than 1 µg/mL; in [5], less than 1 µg/mL; in assay [6], 8 µg/mL (≈ 24.4 µM); in assay [7], 16 µg/mL (≈ 48.9 µM); in [8], less than 1 µg/mL.
For neomycin, the “effectiveness in thromboatherosclerosis model (in words), prior agents” value (from here on “effectiveness”) in assay [9] is listed as “ineffective”.
For `c1cc2c(cc1-c1csc(N=C3NCCCN3)n1)CCCC2` [Example 25], the ED50 in [1] worked out at 100 mg/kg. Moreover, the “Reduction in the increase in liver cholesterol in percent in comparison with the control, following oral cholesterol loading” value in [10] (10 mg/kg per orally) is listed as 65.3%; in assay [10] (30 mg/kg per orally), 78.1%.
On to `CC(=O)N1CCN(c2ccc(OCC3COC(Cn4ccnc4)(c4ccc(Cl)cc4Cl)O3)cc2)CC1` (centres unmarked) [Ketoconazol, ketoconazol, reference compound], for which the MIC in assay [4] is 4 µg/mL (≈ 7.53 µM); in assay [5] it was less than 1 µg/mL; in [6] it was 16 µg/mL (≈ 30.1 µM); in [7], 1 µg/mL (≈ 1.88 µM); in assay [8], less than 1 µg/mL.
On to `Cc1nc(N=C2NCCCN2)sc1C(=O)Nc1ccc(Cl)cc1` [Example 17], for which the ED50 in [1] was found to be 100 mg/kg. Also, the “Reduction in the increase in liver cholesterol in percent in comparison with the control, following oral cholesterol loading” value in [10] (100 mg/kg per orally) is reported as 56.1%.
With `c1ccc2c(-c3csc(N=C4NCCCN4)n3)cccc2c1` [Example 24], the MIC is less than 1 µg/mL in assay [4]; less than 1 µg/mL in assay [5]; less than 1 µg/mL in assay [6]; 8 µg/mL (≈ 25.9 µM) in assay [7]; 2 µg/mL (≈ 6.48 µM) in assay [8].
As for `O=C(O)c1cccnc1` [nicotinic acid], the “effectiveness” value in assay [9] is “ineffective”.
Take `Cc1cc(Cl)ccc1-c1csc(N=C2NCCCN2)n1` [Example 33, 2-(N-(4'-(4"-Chloro-2"-methylphenyl)-thiazol-2'-yl)imino)-hexahydropyrimidine hydrochloride]: the MIC in assay [4] was 2 µg/mL; in assay [5], 2 µg/mL; in assay [6], 2 µg/mL; in assay [7], 16 µg/mL; in [8], 2 µg/mL.
As to `Clc1ccc(C2(Cn3ccnc3)OCC(COc3ccc(-c4ccccc4)cc3)O2)c(Cl)c1` (centres unmarked) [Doconazol, doconazol, reference compound], the Minimum inhibitory concentration in assay [4] was 8 µg/mL (≈ 16.6 µM); in [5] it was less than 1 µg/mL; in [6], 4 µg/mL (≈ 8.31 µM); in assay [7], less than 1 µg/mL; in [8] it was less than 1 µg/mL.
For `c1ccc(-c2csc(N=C3NCCCN3)n2)cc1` [Example 22], the MIC in assay [4] is less than 1 µg/mL; in assay [5], less than 1 µg/mL; in assay [6] it was less than 1 µg/mL; in [7] it was 32 µg/mL (≈ 124 µM); in assay [8], 4 µg/mL (≈ 15.5 µM).
For heparin, the “effectiveness” value in assay [9] was “effective”.
